Assay results: US6806257B1, “Flavones as inducible nitric oxide synthase inhibitors, cyclooxygenase-2 inhibitors and potassium channel activators” (priority 1999, dated 2004)

Columns and labels:
[1] = system: porcine cerebral arteries; experiment: In vitro tissue bath vasorelaxation of precontracted porcine cerebral arteries; conditions: for relaxation of cerebral arteries: concentrations as high as 100 μM, n=4
[2] = system: COX-2; experiment: LPS-induced COX-2 expression in RAW264.7 macrophages (western/northern blot); format: cell-based, mouse; conditions: for LPS-induced COX-2 protein: 20, 40 μM with LPS (100 ng/mL) for 24 hours; for basal COX-2 expression, compound alone: no LPS
Procedure: (§1) Cells. RAW264.7, a mouse macrophage cell line, was obtained from American Type Culture Collection. Cells were cultured in RPMI-1640 medium (available from Gibco Life Technology, in Gaithersburg, Md.) supplemented with 2 mM L-glutamine, antibiotics (100 units/ml penicillin-A and 100 units/ml streptomycin) and 10% heat-inactivated fetal bovine serum (Gibco/BRL) and maintained at 37° C in a humidified incubator containing 5% CO2.
(§2) Western blots. Total cellular extract, cytosolic fractions (for IkB) and nuclear fraction (for p65 antibody) were prepared according to Muller et al., Immunobiology, 187, 233-256, 1993 and separated on sodium dodecyl sulfatepolyacrylamide minigels (8% for iNOS or COX-2, and 10% for IkB or p65) and transferred to immobilon polyvinylidene difluoride membranes (Millipore, Bedford, Mass.). The membrane was incubated overnight at 4° C. with 1% bovine serum albumin and then incubated with anti-iNos, COX-2, α-Tubulin monoclonal antibodies (Transduction Laboratories, Lexington, Ky.), anti-IkB or anti-p65 polyclonal antibodies (Santa Cruz Biochemicals, Santa Cruz, Calif.). iNOS, IkB, p65, Cox-2, α-Tubulin were detected by NBT and BCIP staining (Sigma Chemical Co., St. Louis, Mo.).

[3] = system: LPS-induced NO production in RAW264.7 macrophages; experiment: LPS-induced nitrite (NO) production in RAW264.7 macrophages, Griess reaction; format: cell-based, mouse; conditions: for NO: 24 hours; for IC50: Mus musculus, RAW264.7, together with LPS (100 μg/mL) for 24 hours, n=3, read-out: IC50 in inhibiting LPS-induced NO production
Procedure: as §1
Nitrite assay. The nitrite concentration in the medium was measured as an indicator of NO production according to the Griess reaction (Kim et al., J. Immunol. 153: 4741-4748). One hundred microliters of each supernatant was. mixed with the same volume of Griess reagent (1% sulfanilamide in 5% phosphoric acid and 0. 1% naphthylethylenediamine dihydrochloride in water); absorbency of the mixture at 550 nm was determined with an enzyme-linked immunosorbent assay plate reader (Dynatech MR-7000; Dynatech Labs, Chantilly, Va.).
The effects of flavonoids, ellagitannins, anthraquinones on LPS-induced NO production in macrophages were studied as follows. The chemical structures of two flavonoids (myricitrin, N1; oroxylin A, N2) four ellagitannins (penta-O-galloyl-β-glucopyranose, N3; woodfordin C, N4; onothein B, N5; cuphiin, N6), and two anthraquinones (emodin, N7; physcion, N8) that were used in the present study were shown in FIG. 1. The effects of these eight compounds on NO production in RAW264.7 macrophages were investigated. The accumulated nitrite in the culture medium was used as an index for NO synthesis from these cells. […]

[4] = system: iNOS; experiment: Direct iNOS enzyme activity assay in RAW 264.7 cell lysates; format: biochemical, mouse; conditions: for NO production by direct enzyme activity assay, compound added to lysate (Table 3): lysates of LPS-treated cells
[5] = system: LPS-induced PGE2 production in RAW 264.7 macrophages; experiment: LPS-induced PGE2 production in RAW 264.7 macrophages (co-treatment); format: cell-based, mouse; conditions: 24 hours
Procedure: Un-stimulated RAW 264.7 macrophages in culture medium for 24 hours produced basal amount of PGE2 (1.5 ng/mL) in the medium.

[6] = system: iNOS; experiment: Indirect iNOS enzyme assay: NO in medium of LPS-pretreated intact RAW 264.7 cells; format: cell-based, mouse; conditions: for iNOS enzyme activity in intact cells by nitrite production in the medium: added to cells pre-treated with LPS
[7] = system: COX-2; experiment: COX-2 enzyme activity: PGE2 from added arachidonic acid in LPS-treated RAW 264.7 cells; format: cell-based, mouse; conditions: for PGE2: then arachidonic acid (100 μM) 15 min; for PGE2 production using added arachidonic acid as a substrate: added after COX-2 induction by LPS
[8] = system: iNOS; experiment: LPS-induced iNOS expression in RAW264.7 macrophages (western/northern blot); format: cell-based, mouse; conditions: for increased expression of iNOS in NLA or L-NAME plus LPS treated cells: NLA (or L-NAME) plus LPS co-treated
Procedure: as §1, §2
Northern blot analysis. Total RNA (20 μg/lane) were separated by electrophoresis on 1.2% agarose gel containing 6.7% formaldehyde and transformed to a Hybond-N nylon membrane (American Life Science) in 20×standard saline citrate (3 M sodium chloride and 0.3 M sodium citrate, pH 7.0). After heating at 80° C. for 2 hours and prehybridization for 4 hours, the filters were hybridized with ^32P-labeled murine iNOS cDNA probes at a concentration of 3×10^6 cpm/ml for 16-18 hours at 42° C. The probe was labeled with [α-32P] dCTP by using Random Primer labeling kit (Stratagene, La Jolla, Calif.). Then, the filters were washed, dried and autoradiographed with Kodak-X-Omat XAR-film using intensifying screens at −80° C.

[9] = system: NF-kB (p65) / IkB; experiment: Nuclear p65 / cytosolic IkB western blot in LPS-treated RAW264.7 macrophages; format: cell-based, mouse; conditions: 20 μg/ml, 100 ng/ml LPS for 30 minutes
Procedure: as §2
NF-kB is a transcription factor that is activated in response to stimulation by LPS, and activation of NF-kB is an essential factor in inducing iNOS gene expression in macrophages (Kim, Y. M., Biochem. Biophys. Res. Commun. 236, 655-660, 1997). To assess the effect of these compounds (20 μg/ml) on early stage of iNOS gene expression, the activation of NF-kB in RAW264.7 macrophages was examined using the electrophoretic mobility shift assay (EMSA) (FIGS. 6i and 6ii).

[10] = system: RAW264.7 cells; conditions: mouse, 20 μg/ml
[11] = system: iNOS; experiment: LPS-induced nitrite production and iNOS expression in Bcl-2-overexpressed RAW264.7 cells; format: cell-based, mouse; conditions: 20 μg/ml, LPS 100 ng/ml, Bcl-2/RAW-1 and Bcl-2/RAW-2 cells
[12] = LPS + L-NAME (2 mM) + compound 40 μM
[13] = LPS + NLA (2 mM) + compound 40 μM
[14] = different concentrations together with LPS for 24 hours
[15] = 20 μM added to lysate of LPS (100 ng/mL, 12 hr)-treated cells
[16] = 40 μM added to lysate of LPS (100 ng/mL, 12 hr)-treated cells
[17] = lysates of LPS-pretreated cells incubated with 20 μM for 12 hours
[18] = lysates of LPS-pretreated cells incubated with 40 μM for 12 hours
[19] = 20 μM added for 12 hours after LPS (100 ng/ml) 12 hours pretreatment
[20] = 40 μM added for 12 hours after LPS (100 ng/ml) 12 hours pretreatment
[21] = 20 μM for 30 min after LPS 6 hours
[22] = 40 μM for 30 min after LPS 6 hours

Nc1ccncc1 [4-aminopyridine, reference compound]
effect of the blocker/inhibitor on oroxylin A-induced relaxation ([1]; arteries without endothelial cells, U-46619): significantly inhibited

O=c1cc(-c2ccccc2)oc2cc(O)c(O)c(O)c12 [baicalein]
LPS-induced COX-2 protein [2]: did not inhibit
basal COX-2 expression, compound alone [2]: did not affect
NO [3, 12]: 7.9 ± 1.2 μmole/4 × 10^5
NO [3, 13]: 8.3 ± 1.3 μmole/4 × 10^5
IC50 [3]: 19.4 ± 1 µM
LPS-induced nitrite production [3, 14]: significant concentration-dependent inhibition
direct effect on iNOS enzyme activity [4]: did not directly affect
iNOS specific activity: NO formation [4, 15]: 7.2 ± 0.1 μM/200 μg total protein
iNOS specific activity: NO formation [4, 16]: 9.2 ± 1.8 μM/200 μg total protein
iNOS specific activity: NO formation [4, 17]: 9.8 ± 2.3 μM/200 μg protein
iNOS specific activity: NO formation [4, 18]: 8.1 ± 1.9 μM/200 μg protein
NO production by direct enzyme activity assay, compound added to lysate (Table 3) [4]: did not inhibit
PGE2 [5, 12]: 6.2 ± 0.5 ng/mL
PGE2 [5, 13]: 5.5 ± 0.8 ng/mL
NO in medium [6, 19]: 15.4 ± 0.3 μM/6 × 10^5 cells
NO in medium [6, 20]: 13.1 ± 0.9 μM/6 × 10^5 cells
iNOS enzyme activity in intact cells by nitrite production in the medium [6]: did not affect
direct effect on COX-2 enzyme activity [7]: did not directly affect
PGE2 [7, 21]: 6.1 ± 0.2 ng/mL
PGE2 [7, 22]: 6.2 ± 0.5 ng/mL
PGE2 production using added arachidonic acid as a substrate [7]: no decrease
increased expression of iNOS in NLA or L-NAME plus LPS treated cells [8]: inhibited

O=C(O)[C@H]1O[C@@H](Oc2cc3oc(-c4ccccc4)cc(=O)c3c(O)c2O)[C@H](O)[C@@H](O)[C@@H]1O [baicalin]
LPS-induced COX-2 protein [2]: did not inhibit
basal COX-2 expression, compound alone [2]: did not affect
NO [3, 12]: 8.5 ± 0.9 μmole/4 × 10^5
NO [3, 13]: 7.1 ± 0.3 μmole/4 × 10^5
IC50 [3]: 15 ± 1.4 µM
LPS-induced nitrite production [3, 14]: significant concentration-dependent inhibition
direct effect on iNOS enzyme activity [4]: did not directly affect
iNOS specific activity: NO formation [4, 15]: 8.7 ± 1.0 μM/200 μg total protein
iNOS specific activity: NO formation [4, 16]: 9.0 ± 1.1 μM/200 μg total protein
iNOS specific activity: NO formation [4, 17]: 8.7 ± 1.3 μM/200 μg protein
iNOS specific activity: NO formation [4, 18]: 9.4 ± 2.1 μM/200 μg protein
NO production by direct enzyme activity assay, compound added to lysate (Table 3) [4]: did not inhibit
PGE2 [5, 12]: 6.1 ± 0.3 ng/mL
PGE2 [5, 13]: 5.8 ± 1.1 ng/mL
NO in medium [6, 19]: 14.5 ± 0.5 μM/6 × 10^5 cells
NO in medium [6, 20]: 14.8 ± 1.5 μM/6 × 10^5 cells
iNOS enzyme activity in intact cells by nitrite production in the medium [6]: did not affect
direct effect on COX-2 enzyme activity [7]: did not directly affect
PGE2 [7, 21]: 6.1 ± 0.6 ng/mL
PGE2 [7, 22]: 5.9 ± 0.4 ng/mL
PGE2 production using added arachidonic acid as a substrate [7]: no decrease
increased expression of iNOS in NLA or L-NAME plus LPS treated cells [8]: inhibited

Cc1cc(O)c2c(c1)C(=O)c1cc(O)cc(O)c1C2=O [emodin, Emodin, reference compound]
LPS-induced nitrite production ([3]; 5, 10 or 20 μg/ml together with 100 ng/ml LPS for 24 hours): significant inhibition
relaxation of cerebral arteries [1]: very small relaxation or no response
blocking LPS-induced iNOS gene expression, comparison among compounds tested [8]: potent inhibitory effect, comparable to oroxylin A
LPS-induced iNOS protein ([8]; 100 ng/ml LPS, western blot): inhibited LPS-induced iNOS protein in a concentration-dependent manner
LPS-induced increase of nuclear p65 and decrease of cytosolic IkB [9]: did not block
cytotoxity by MTT assay [10]: ~30%
LPS-induced iNOS gene expression [11]: inhibited
LPS-induced nitrite production [11]: inhibited

O=C(O[C@@H]1Cc2c(O)cc(O)cc2O[C@@H]1c1cc(O)c(O)c(O)c1)c1cc(O)c(O)c(O)c1 [epigallocatechin gallate, reference compound]
relaxation of cerebral arteries [1]: very small relaxation or no response

C[C@@H]1C(=O)O[C@H]2C[C@@]34[C@H]5C[C@@H](C(C)(C)C)[C@]36[C@@H](OC(=O)[C@@H]6O)O[C@@]4(C(=O)O5)[C@]21O [ginkgolide A, reference compound]
relaxation of cerebral arteries [1]: very small relaxation or no response

CC1C(=O)OC2C(O)C34C5CC(C(C)(C)C)C36C(OC(=O)C6O)OC4(C(=O)O5)C12O (centres unmarked) [ginkgolide B, reference compound]
relaxation of cerebral arteries [1]: very small relaxation or no response
